Results taken from patent US10913738B2 (BRISTOL-MYERS SQUIBB COMPANY, priority 2017, dated 2021).
Like-named read-outs stand apart in the source and are kept apart here.

What was measured:
[1] = test system: MLKL phosphorylation in HT29-L23 human colorectal adenocarcinoma cells; assay: MLKL Phosphorylation High-Content Assay; type: cell-based; settings: Homo sapiens
How it was run: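 IC50 and Ymax obtained by 4-parameter logistic fitting of MLKL phosphorylation, measured as mean circ-ring average intensity ratio from high-content images. Staining used an anti-phospho-S358 MLKL antibody overnight at 4° C., following six-hour cell incubation at 37° C.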

[2] = biological target: T1, His-GST-TVMV-hRIPK1(1-324) (Homo sapiens, UniProt Q13546); assay: RIPK1 HTRF Binding Assay
T1 construct: The coding region of human RIPK1(1-324) flanked by NdeI site at 5′ end; made in house; host or cells: Spodoptera frugiperda (Sf9) insect cells, baculovirus
T1 sequence (Q13546 1-324): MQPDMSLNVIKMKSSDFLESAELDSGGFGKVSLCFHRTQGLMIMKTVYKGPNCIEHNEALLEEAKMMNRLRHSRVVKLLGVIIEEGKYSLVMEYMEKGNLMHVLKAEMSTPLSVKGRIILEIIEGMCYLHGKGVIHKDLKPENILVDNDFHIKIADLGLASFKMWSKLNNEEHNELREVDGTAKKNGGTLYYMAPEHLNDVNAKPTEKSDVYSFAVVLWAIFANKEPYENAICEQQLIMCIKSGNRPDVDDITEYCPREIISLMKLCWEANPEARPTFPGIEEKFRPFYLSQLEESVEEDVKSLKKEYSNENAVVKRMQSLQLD

[3] = x marks IC50 class 20-200 nM, read-out: pMLKL cell activity 20-200 nM
[4] = x marks IC50 class <20 nM, read-out: RIPK1 HTRF binding <20 nM

SMILES | IC50 [1, 3] [µM] | IC50 [2, 4] [µM] | IC50 ([1]; x marks IC50 class >200 nM, read-out: pMLKL cell activity >200 nM) [µM] | IC50 ([2]; x marks IC50 class 20-200 nM, read-out: RIPK1 HTRF binding 20-200 nM) [µM] | IC50 ([1]; x marks IC50 class <20 nM, read-out: pMLKL cell activity <20 nM) [µM]
[2H]C([2H])([2H])[C@@H](NC(=O)c1cc(-c2ccn3nc(N)nc3c2)cnc1C)c1cc(C(F)(F)F)ccc1F [Example 303, (R)-5-(2-amino-[1,2,4]triazolo[1,5-a]pyridin-7-yl)-N-(1-(2-fluoro-5-(trifluoromethyl)phenyl)ethyl-2,2,2-H3)-2-methylnicotinamide] | 0.02 to 0.2 | < 0.02 |  |  | 
Cc1ncc(C(=O)NCc2ncccc2OC2CCCC2)cc1-c1ccn2nc(N)nc2c1 [Example 17, 5-{2-Amino-[1,2,4]triazolo[1,5-a]pyridin-7-yl}-N-{[3-(cyclopentyloxy)pyridin-2-yl]methyl}-6-methylpyridine-3-carboxamide] | 0.02 to 0.2 | < 0.02 |  |  | 
CCOc1ncc(-c2ccn3nc(N)nc3c2)cc1C(=O)NCc1ccccc1S(=O)(=O)c1ccccc1CO [Example 270, 5-{2-amino-[1,2,4]triazolo[1,5-a]pyridin-7-yl}-2-ethoxy-N-({2-[2-(hydroxymethyl)benzenesulfonyl]phenyl}methyl)pyridine-3-carboxamide] | 0.02 to 0.2 | < 0.02 |  |  | 
COc1nc(C)c(-c2ccn3nc(N)nc3c2)cc1C(=O)NCc1cccnc1OCC1CCC1 [Example 209, 5-{2-amino-[1,2,4]triazolo[1,5-a]pyridin-7-yl}-N-{[2-(cyclobutylmethoxy)pyridin-3-yl]methyl}-2-methoxy-6-methylpyridine-3-carboxamide] | 0.02 to 0.2 | < 0.02 |  |  | 
COc1ncc(-c2ccn3nc(N)nc3c2)cc1C(=O)NCc1c(F)cccc1OC(C)C [Example 29, 5-{2-Amino-[1,2,4]triazolo[1,5-a]pyridin-7-yl}-N-{[2-fluoro-6-(propan-2-yloxy)phenyl]methyl}-2-methoxypyridine-3-carboxamide] | 0.02 to 0.2 | < 0.02 |  |  | 
COc1ncc(-c2ccn3nc(N)nc3c2)cc1C(=O)NCc1cc(F)cc(F)c1O[C@@H]1CCOC1 [Example 363, (R)-5-(2-amino-[1,2,4]triazolo[1,5-a]pyridin-7-yl)-N-(3,5-difluoro-2-((tetrahydrofuran-3-yl)oxy)benzyl)-2-methoxynicotinamide] | 0.02 to 0.2 | < 0.02 |  |  | 
COc1ncc(-c2ccn3nc(N)nc3c2)cc1C(=O)NCc1ncccc1OC1CCCC1 [Example 141, 5-{2-amino-[1,2,4]triazolo[1,5-a]pyridin-7-yl}-N-{[3-(cyclopentyloxy)pyridin-2-yl]methyl}-2-methoxypyridine-3-carboxamide] | 0.02 to 0.2 | < 0.02 |  |  | 
Cc1ncc(-c2ccn3nc(N)nc3c2)cc1C(=O)NCc1cc(F)cc(F)c1OCC1CC1 [Example 235, 5-{2-amino-[1,2,4]triazolo[1,5-a]pyridin-7-yl}-N-{[2-(cyclopropylmethoxy)-3,5-difluorophenyl]methyl}-2-methylpyridine-3-carboxamide] | 0.02 to 0.2 | < 0.02 |  |  | 
Cc1ccc(-c2ccn3nc(N)nc3c2)nc1C(=O)NCc1cc(OC(F)(F)F)ccc1F [Example 405, 6-(2-amino-[1,2,4]triazolo[1,5-a]pyridin-7-yl)-N-(2-fluoro-5-(trifluoromethoxy)benzyl)-3-methylpicolinamide] |  |  | > 0.2 | 0.02 to 0.2 | 
COc1ncc(-c2ccn3nc(N)nc3c2)cc1C(=O)NCc1ccccc1N1CCC(C)CC1 [Example 108, 5-{2-amino-[1,2,4]triazolo[1,5-a]pyridin-7-yl}-2-methoxy-N-{[2-(4-methylpiperidin-1-yl)phenyl]methyl}pyridine-3-carboxamide] |  | < 0.02 |  |  | < 0.02
COc1ncc(-c2ccn3nc(N)nc3c2)cc1C(=O)NCc1ccccc1OC(C)C [Example 144, 5-{2-amino-[1,2,4]triazolo[1,5-a]pyridin-7-yl}-2-methoxy-N-{[2-(propan-2-yloxy)phenyl]methyl}pyridine-3-carboxamide] | 0.02 to 0.2 | < 0.02 |  |  | 
